We go through seven molecules from ChEMBL document CHEMBL1201862, “PubChem BioAssay data set” (2004).

Assay [1] has as its system HEK293. The assay can be described thus: cells. Format: functional, cell-based. To be noted: Homo sapiens.
For assay [2], the target named is 5-hydroxytryptamine receptor 5A (Homo sapiens, UniProt P47898). The assay is described as follows: Counterscreen for agonists of OPRM1-OPRD1 heterodimerization: luminescence-based cell-based high throughput dose response assay to identify agonists of 5-hydroxytryptamine (serotonin) 5A receptor (HTR5A). [Related pubchem assays (depositor defined):AID504326, AID504355, AID504692, AID504904, AID504905]. In kind it is functional. (In general: The purpose of a counterscreen is to sort out artefacts and off-target activity.)
Chain of 5-hydroxytryptamine receptor 5A (P47898 whole entry): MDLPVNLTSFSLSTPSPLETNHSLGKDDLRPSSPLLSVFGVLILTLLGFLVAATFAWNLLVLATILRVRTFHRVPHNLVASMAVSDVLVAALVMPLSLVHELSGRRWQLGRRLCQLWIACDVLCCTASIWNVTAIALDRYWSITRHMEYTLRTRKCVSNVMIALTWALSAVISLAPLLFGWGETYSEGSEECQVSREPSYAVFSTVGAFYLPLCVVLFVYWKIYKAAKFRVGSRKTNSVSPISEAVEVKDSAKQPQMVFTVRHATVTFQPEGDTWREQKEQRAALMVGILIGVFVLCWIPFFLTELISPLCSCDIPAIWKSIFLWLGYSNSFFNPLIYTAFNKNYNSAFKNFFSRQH

For assay [3], the target named is Delta-type opioid receptor (Homo sapiens, UniProt P41143). The assay is described as follows: Counterscreen for agonists of heterodimerization of the mu 1 (OPRM1) and delta 1 (OPRD1) opioid receptors: Luminescence-based cell-based high throughput dose response assay to identify agonists of OPRD1 homodimerization. [Related pubchem assays (depositor defined):AID504326, AID504355, AID504692, AID504904, AID504905]. In kind it is functional.
Chain of Delta-type opioid receptor (P41143 whole entry): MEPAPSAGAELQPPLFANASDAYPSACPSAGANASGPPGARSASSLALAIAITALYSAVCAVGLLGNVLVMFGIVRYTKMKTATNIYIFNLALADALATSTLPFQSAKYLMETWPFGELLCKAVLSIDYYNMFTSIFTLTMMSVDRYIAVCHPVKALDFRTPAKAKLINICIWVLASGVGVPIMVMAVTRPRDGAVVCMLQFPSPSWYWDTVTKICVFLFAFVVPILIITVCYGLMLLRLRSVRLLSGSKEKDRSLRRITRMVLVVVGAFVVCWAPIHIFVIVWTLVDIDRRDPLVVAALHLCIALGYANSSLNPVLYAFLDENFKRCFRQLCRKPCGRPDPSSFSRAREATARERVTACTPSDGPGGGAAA

Assay [4] relates to HEK293. The assay can be described thus: cells. Format: functional, cell-based. As to conditions: Homo sapiens. The source holds these as a separate data set.
In assay [5] the test system is HEK293. The assay can be described thus: cells. In kind it is functional, cell-based. To be noted: Homo sapiens. This is another data set of the same source.
The target of assay [6] is T1, Short transient receptor potential channel 4 (Mus musculus, UniProt Q9QUQ5).
T1 sequence (Q9QUQ5 whole entry): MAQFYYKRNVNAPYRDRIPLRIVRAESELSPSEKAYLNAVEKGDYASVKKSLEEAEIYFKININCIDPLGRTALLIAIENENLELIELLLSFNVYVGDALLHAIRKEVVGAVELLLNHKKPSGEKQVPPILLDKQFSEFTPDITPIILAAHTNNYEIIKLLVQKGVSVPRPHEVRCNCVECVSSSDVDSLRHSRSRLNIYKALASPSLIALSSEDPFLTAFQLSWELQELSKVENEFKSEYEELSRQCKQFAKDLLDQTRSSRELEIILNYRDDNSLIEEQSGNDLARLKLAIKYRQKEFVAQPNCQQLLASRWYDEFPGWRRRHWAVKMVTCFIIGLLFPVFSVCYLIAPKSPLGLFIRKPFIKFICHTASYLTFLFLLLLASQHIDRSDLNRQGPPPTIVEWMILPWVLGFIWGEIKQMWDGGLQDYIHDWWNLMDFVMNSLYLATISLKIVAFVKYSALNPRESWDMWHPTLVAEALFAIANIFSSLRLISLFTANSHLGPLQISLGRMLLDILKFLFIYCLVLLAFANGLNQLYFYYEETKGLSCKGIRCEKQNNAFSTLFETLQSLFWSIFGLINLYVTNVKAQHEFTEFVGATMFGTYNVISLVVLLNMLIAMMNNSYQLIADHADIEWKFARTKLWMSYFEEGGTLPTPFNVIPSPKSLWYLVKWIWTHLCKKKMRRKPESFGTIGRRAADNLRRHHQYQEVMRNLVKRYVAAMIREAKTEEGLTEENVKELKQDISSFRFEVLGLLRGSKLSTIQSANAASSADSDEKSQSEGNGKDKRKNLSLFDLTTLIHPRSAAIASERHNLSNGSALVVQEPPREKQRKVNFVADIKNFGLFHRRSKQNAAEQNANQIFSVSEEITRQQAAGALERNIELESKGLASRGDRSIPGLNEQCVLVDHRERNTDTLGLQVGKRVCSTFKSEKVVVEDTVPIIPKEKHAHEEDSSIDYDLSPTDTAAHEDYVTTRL
The assay can be described thus: mouse TRPC4 channel inhibitors, dose response, cell-based, HEK293 TRPC4/mu-opioid, Fluo-4 calcium (AID 434942).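 Also: potency of inhibitors blocking the TRPC4 calcium response.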 Format: functional.

Assay [7] deals with HEK293. The assay can be described thus: NOD1 signaling inhibitors, primary screen, cell-based, luminescence, uHTS (AID 1578). In kind it is functional. To be noted: Homo sapiens.
A further assay deals with Mu-type opioid receptor (Homo sapiens, UniProt P35372). The assay can be described thus: Counterscreen for agonists of heterodimerization of the mu 1 (OPRM1) and delta 1 (OPRD1) opioid receptors: Luminescence-based cell-based high throughput dose response assay to identify agonists of OPRM1 homodimerization. Format: functional.
Chain of Mu-type opioid receptor (P35372 whole entry, the tested form may be a part): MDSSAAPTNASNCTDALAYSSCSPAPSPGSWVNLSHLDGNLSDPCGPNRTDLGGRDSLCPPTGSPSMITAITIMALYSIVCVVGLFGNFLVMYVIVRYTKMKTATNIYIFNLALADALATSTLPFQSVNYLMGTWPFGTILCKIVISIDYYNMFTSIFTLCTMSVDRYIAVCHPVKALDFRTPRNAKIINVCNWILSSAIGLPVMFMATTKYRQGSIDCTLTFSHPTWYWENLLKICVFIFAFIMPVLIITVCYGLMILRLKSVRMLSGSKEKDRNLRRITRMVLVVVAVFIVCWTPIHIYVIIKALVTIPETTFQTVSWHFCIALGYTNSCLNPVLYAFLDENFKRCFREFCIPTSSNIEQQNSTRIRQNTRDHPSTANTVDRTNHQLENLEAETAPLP
Assay [8] concerns the target Nucleotide-binding oligomerization domain-containing protein 2 (Homo sapiens, UniProt Q9HC29). The assay can be described thus: NOD2 signaling inhibitors, cell-based, luminescence, uHTS, HEK293 (AID 1566). Format: functional.
Assay [9] deals with HEK293. The assay is described as follows: NOD2 signaling inhibitors in MDP-stimulated cells, cell-based, uHTS, luminescence (AID 2001). To be noted: Homo sapiens. In kind it is functional.
Assay [10] concerns the target T2, Alkaline phosphatase, tissue-nonspecific isozyme (Homo sapiens, UniProt P05186).
T2 sequence (P05186 whole entry): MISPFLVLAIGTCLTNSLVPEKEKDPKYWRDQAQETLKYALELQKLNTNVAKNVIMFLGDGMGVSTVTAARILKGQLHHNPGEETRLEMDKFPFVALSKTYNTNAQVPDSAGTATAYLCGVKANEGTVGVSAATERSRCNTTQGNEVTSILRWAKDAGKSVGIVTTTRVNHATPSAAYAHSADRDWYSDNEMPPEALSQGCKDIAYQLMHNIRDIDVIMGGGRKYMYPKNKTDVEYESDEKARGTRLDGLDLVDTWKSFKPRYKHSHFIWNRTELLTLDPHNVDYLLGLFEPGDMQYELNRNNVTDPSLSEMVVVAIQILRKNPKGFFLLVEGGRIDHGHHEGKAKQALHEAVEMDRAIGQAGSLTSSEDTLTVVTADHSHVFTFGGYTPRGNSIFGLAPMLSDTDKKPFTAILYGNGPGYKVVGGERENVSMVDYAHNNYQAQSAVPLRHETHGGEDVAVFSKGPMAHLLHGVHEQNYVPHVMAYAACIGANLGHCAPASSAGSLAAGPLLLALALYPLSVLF
The assay can be described thus: TNAP enzyme activators, dose response, selectivity assay for human IAP activator project, biochemical, TNAP isozyme, human IAP uHTS hits (AID 488886).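 Also: potency of compounds raising TNAP activity as a selectivity check on IAP activators.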 Format: functional.

Assay [11] deals with Intestinal-type alkaline phosphatase (Mus musculus, UniProt P24822). The assay can be described thus: PubChem AID 488874. In kind it is functional.
Chain of Intestinal-type alkaline phosphatase (Mus musculus, UniProt P24822) (P24822 whole entry): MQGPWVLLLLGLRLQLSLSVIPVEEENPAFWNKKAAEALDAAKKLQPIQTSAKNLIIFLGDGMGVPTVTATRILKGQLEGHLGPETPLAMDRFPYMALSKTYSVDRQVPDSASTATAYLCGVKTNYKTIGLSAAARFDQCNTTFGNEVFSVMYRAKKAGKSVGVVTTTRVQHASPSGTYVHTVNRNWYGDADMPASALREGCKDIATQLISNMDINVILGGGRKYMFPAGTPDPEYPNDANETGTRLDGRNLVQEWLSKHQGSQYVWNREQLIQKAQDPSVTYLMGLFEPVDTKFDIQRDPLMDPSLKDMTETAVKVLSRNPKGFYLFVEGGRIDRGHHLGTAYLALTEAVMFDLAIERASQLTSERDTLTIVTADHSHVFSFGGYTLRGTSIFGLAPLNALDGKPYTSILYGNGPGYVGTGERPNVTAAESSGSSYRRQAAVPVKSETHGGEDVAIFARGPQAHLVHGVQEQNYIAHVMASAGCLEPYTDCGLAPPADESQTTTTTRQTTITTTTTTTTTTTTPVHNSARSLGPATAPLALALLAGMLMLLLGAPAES
The target of assay [12] is T3, Intestinal-type alkaline phosphatase (Homo sapiens, UniProt P09923). The assay is described as follows: human intestinal alkaline phosphatase activators, dose response, biochemical, luminescence, uHTS hits (AID 463120). In kind it is functional.
T3 sequence (P09923 whole entry): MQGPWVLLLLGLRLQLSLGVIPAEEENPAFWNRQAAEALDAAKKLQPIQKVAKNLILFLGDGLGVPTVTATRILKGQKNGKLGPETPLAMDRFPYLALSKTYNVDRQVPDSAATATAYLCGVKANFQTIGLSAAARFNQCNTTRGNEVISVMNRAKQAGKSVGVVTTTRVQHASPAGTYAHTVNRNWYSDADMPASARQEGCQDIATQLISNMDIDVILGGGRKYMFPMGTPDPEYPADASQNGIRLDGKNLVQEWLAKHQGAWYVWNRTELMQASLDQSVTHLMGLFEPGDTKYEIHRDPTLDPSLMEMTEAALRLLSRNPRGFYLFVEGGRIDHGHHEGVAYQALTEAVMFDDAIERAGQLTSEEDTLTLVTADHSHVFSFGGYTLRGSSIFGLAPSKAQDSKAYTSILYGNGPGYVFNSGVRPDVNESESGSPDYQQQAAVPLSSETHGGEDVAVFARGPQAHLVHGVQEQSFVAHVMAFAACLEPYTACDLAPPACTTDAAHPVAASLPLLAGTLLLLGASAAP
The target in assay [13] is T3, Intestinal-type alkaline phosphatase. The assay can be described thus: human IAP activators, dose response, biochemical, luminescent, uHTS hits, set 2 (AID 488817).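 Also: potency of activators that raise enzyme activity.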 In kind it is functional.
Assay [14] can be described thus: cytotoxicity toward NIH3T3 fibroblasts, dose response, counter-screen, cell-based, ATP luminescence, mouse fibroblasts (AID 2010).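 Also: cells exposed to compound for about 90 hours before reading.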 In kind it is functional.
Assay [15] concerns the target Dual specificity tyrosine-phosphorylation-regulated kinase 1A (Rattus norvegicus, UniProt Q63470). In kind it is biochemical, Homo sapiens.
Assay [16] can be described thus: inhibitors of intracellular T. cruzi replication, confirmation, NIH3T3 host cells, beta-gal luminescence (AID 2044).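 Also: intracellular parasites grown in NIH/3T3 mouse fibroblasts as host cells; luminescent beta-galactosidase reporter signal from transgenic T. cruzi replicating inside host cells; inhibitors lower the luminescence signal.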 In kind it is functional, cell-based.
In assay [17] the target is ADP-ribosylation factor GTPase-activating protein 1 (Rattus norvegicus, UniProt Q62848). The assay can be described thus: Fluorescence polarization-based biochemical high throughput dose response screening assay to identify inhibitors of ADP-ribosylation factor GTPase activating protein 1 (ARFGAP1). Format: functional. Background: In fluorescence polarisation assays a small probe gives low polarisation when free and higher when bound to something large.
Chain of ADP-ribosylation factor GTPase-activating protein 1 (Q62848 whole entry): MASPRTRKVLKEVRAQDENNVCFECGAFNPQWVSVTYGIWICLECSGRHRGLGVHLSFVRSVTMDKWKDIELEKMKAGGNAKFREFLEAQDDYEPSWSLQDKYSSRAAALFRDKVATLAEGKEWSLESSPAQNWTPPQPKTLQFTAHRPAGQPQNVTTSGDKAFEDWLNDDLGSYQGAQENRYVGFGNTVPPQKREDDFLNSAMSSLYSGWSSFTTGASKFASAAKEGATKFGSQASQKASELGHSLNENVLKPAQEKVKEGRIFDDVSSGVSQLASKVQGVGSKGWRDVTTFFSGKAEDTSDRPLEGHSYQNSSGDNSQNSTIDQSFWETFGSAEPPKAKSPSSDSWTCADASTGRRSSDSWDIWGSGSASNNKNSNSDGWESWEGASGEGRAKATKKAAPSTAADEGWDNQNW

For assay [18], the target named is Dual specificity protein kinase CLK1 (Homo sapiens, UniProt P49759). The assay can be described thus: CLK1 kinase inhibitors, off-target check, dose response, selectivity assay for Dyrk1A inhibitor project, biochemical, cherry-picked samples (AID 588811).
Chain of Dual specificity protein kinase CLK1 (P49759 whole entry): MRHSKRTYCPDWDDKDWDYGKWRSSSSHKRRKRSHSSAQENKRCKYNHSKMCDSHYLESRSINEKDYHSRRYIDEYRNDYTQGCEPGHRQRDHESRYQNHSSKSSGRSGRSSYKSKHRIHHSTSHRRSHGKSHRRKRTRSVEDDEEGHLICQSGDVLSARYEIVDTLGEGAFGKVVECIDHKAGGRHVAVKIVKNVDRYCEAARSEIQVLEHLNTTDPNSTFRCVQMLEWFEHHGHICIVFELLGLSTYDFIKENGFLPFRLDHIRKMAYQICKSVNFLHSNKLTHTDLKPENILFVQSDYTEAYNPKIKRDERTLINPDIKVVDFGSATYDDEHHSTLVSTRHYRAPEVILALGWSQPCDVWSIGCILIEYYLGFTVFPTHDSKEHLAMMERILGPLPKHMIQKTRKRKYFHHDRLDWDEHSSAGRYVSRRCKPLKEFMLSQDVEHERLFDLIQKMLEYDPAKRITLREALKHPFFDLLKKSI
Assay [19] addresses FAD-linked sulfhydryl oxidase ALR (Homo sapiens, UniProt P55789). The assay can be described thus: inhibitors of human ALR sulfhydryl oxidase, dose response, biochemical, H2O2 detection, luminescence, cherry-pick (AID 493248).
In assay [20] the test system is HEK293. The assay can be described thus: cells. To be noted: Homo sapiens.
For assay [21], the target named is T4, Corticotropin-releasing factor receptor 2/Corticotropin-releasing factor-binding protein (Homo sapiens, UniProt P24387+Q13324).
T4 sequence (Q13324 whole entry): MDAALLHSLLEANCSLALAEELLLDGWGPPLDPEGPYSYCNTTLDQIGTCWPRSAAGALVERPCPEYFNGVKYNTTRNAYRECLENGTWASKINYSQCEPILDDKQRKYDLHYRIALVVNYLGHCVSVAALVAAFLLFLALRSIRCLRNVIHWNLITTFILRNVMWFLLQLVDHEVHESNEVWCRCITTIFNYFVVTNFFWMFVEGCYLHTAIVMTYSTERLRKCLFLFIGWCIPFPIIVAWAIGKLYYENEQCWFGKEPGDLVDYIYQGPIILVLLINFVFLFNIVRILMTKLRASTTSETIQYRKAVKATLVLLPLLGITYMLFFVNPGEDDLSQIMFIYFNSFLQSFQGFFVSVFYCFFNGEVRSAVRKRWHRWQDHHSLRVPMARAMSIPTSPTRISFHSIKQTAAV
T4 sequence (P24387 whole entry): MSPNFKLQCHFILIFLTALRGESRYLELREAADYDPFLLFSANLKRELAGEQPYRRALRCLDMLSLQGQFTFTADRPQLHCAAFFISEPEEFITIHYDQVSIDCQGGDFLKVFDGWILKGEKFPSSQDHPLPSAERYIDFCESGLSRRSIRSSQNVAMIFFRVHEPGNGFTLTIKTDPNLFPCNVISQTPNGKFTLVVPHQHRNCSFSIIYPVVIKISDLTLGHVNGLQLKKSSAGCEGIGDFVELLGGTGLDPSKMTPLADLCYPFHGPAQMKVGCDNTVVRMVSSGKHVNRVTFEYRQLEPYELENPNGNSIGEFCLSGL
The assay can be described thus: activators of CRF receptor 2 with binding protein – uHTS hits, confirmation (AID 602473). In kind it is functional. As to conditions: read-out: EC50_Mean.

The nature of assay [22]: CRF-BP/CRF-R2 complex antagonists, dose response, cell-based, uHTS hits, 384-well (AID 651639). Format: functional, Homo sapiens. As to conditions: read-out: IC50_Mean.
The target of assay [23] is Nucleotide-binding oligomerization domain-containing protein 1 (Homo sapiens, UniProt Q9Y239). The assay can be described thus: NOD1 signaling inhibitors, SAR follow-up, revised (AID 2333). Format: functional.
The next assay has as its target Tumor necrosis factor (Homo sapiens, UniProt P01375). The assay is described as follows: TNFa-triggered NF-kB activation inhibitors, SAR follow-up, cell-based, revised (AID 2337). In kind it is functional.
In assay [24] the target is T4, Corticotropin-releasing factor receptor 2/Corticotropin-releasing factor-binding protein. The assay is described as follows: Dose Response confirmation of uHTS hits for small molecule antagonists of the CRF-binding protein and CRF-R2 receptor complex. Format: functional. As to conditions: read-out: IC50_Mean.

Active and inactive are the calls of the source.

Chain of Nucleotide-binding oligomerization domain-containing protein 2 (Q9HC29 whole entry, the tested form may be a part): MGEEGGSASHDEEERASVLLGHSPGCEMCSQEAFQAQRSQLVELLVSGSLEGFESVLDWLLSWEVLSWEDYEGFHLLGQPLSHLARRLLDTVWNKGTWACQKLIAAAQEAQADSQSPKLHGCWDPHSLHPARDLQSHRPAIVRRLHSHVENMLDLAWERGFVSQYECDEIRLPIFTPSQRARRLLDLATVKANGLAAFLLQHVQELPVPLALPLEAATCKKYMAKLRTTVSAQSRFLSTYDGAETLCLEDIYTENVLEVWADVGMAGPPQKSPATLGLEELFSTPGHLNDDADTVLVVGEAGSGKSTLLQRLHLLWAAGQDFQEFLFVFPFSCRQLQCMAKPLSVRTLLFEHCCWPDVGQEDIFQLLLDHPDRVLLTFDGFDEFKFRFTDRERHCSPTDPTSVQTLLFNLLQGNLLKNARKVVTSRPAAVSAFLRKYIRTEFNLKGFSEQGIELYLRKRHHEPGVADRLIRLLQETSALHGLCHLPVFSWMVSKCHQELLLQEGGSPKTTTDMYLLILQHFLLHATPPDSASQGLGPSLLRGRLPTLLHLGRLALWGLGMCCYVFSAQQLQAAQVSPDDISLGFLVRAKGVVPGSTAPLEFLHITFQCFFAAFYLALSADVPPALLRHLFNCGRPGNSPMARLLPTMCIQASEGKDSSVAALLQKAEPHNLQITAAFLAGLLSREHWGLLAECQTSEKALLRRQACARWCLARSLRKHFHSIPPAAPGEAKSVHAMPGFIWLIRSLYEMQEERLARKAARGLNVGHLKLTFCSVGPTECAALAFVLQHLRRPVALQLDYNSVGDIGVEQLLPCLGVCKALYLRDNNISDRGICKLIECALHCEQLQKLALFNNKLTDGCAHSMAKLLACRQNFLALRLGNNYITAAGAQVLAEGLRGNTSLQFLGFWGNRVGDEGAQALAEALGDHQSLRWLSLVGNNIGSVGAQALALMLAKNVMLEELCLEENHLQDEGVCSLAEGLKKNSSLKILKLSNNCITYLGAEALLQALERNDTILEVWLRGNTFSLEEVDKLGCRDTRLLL
Chain of FAD-linked sulfhydryl oxidase ALR (P55789 whole entry): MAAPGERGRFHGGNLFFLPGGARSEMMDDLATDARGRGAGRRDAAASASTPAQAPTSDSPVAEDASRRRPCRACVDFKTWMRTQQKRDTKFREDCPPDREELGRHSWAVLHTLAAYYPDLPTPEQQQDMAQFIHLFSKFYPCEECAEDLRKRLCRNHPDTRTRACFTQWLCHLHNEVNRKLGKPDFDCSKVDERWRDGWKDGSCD
Chain of Tumor necrosis factor (P01375 whole entry): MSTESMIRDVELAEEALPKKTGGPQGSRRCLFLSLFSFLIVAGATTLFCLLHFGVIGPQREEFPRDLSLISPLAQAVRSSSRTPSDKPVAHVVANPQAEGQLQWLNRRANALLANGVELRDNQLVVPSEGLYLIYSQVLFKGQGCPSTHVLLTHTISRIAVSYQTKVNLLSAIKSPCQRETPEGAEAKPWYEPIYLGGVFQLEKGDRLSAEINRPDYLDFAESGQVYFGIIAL

For the molecule `Cc1nc(N2CCN(c3ccccn3)CC2)c2c(C)c(C(=O)N3CCN(c4ccc(F)cc4)CC3)sc2n1`, the IC50 is 17.1 µM (active) with HEK293 [1], > 20 µM (inactive) with HEK293 [4], 6.02 µM (active) in the assay with HEK293 [5] and 6.95 µM (active) in the assay with HEK293 [9]. The EC50 in [2] is > 92.4 µM (inactive); in assay [3], > 92.4 µM (inactive); in assay [6], 1.19 µM (active); with HEK293 [7], 6.14 µM (active); on Mu-type opioid receptor, 10.8 µM (inactive); in assay [8] it was 5.26 µM (active).

`O=C(NNC(=S)NCc1ccco1)c1ccccc1Br`: the figures for the EC50 in assay [10], in [12] and in assay [13] were 12 µM (active), 9.62 µM (active) and 13.8 µM (active), respectively. Besides, in [11], the IC50 is 53.9 µM (active).

With `O=C(/C=C/c1ccccc1)Nc1nc(-c2ccncc2)cs1`, the EC50 in assay [14] is 17.6 µM (active); in assay [16] it was 0.843 µM (active). Moreover, the AC50 (as a rule, the concentration at which the activity in the assay is half-maximal) in [15] is 0.103 µM (active). The IC50 in assay [17] was 28.8 µM (inactive).

Consider `c1nc(NCC2CCCOC2)c2cc(-c3ccc4c(c3)OCO4)ccc2n1` (stereo not drawn), for which, in [18], the AC50 is 0.0101 µM (active).

Take `NC(=O)c1c(NC(=O)c2ccc(N3C(=O)CCC3=O)cc2)sc2c1CCCC2`: the AC50 in assay [19] is 0.165 µM (active); in assay [18], 0.853 µM (active); in assay [15] it was 3.9 µM (active).

Turning to `CC1CCN(S(=O)(=O)c2nnc(NC(=O)c3cccc(Cl)c3)s2)CC1`, the IC50 in the assay on HEK293 [1] is > 20 µM (inactive); in the assay with HEK293 [20], 17.2 µM (active); in the assay with HEK293 [4], > 20 µM (inactive); in assay [22], > 20 µM (inactive); in assay [23] it was 5.14 µM (active); in the assay with HEK293 [5], 11.1 µM (active). Besides, the IC50 at Tumor necrosis factor was 6.64 µM (active); in [24], 14.6 µM (active); in the assay on HEK293 [9] it was 9.2 µM (active). Further, the results for the EC50 (in [21]; in the assay with HEK293 [7]; in [8]) were > 53 µM (inactive), 2.64 µM (active) and 16.8 µM (active), respectively.

Take `O=C(OC1C2CCC1C1CN(CCc3ccccc3)CC12)c1ccccc1` (stereo not drawn): the EC50 in assay [2] is > 92.5 µM (inactive); in assay [3], > 92.5 µM (inactive); in [6], 3.35 µM (active); on Mu-type opioid receptor it was > 92.5 µM (inactive).
